Results published in PMC10526854, “Shikonin and Juglone Inhibit Mycobacterium tuberculosis Low-Molecular-Weight Protein Tyrosine Phosphatase a (Mt-PTPa)” (BioTech, 2023).

Legend:
[1] = molecular target: T1, Mt-PTPa (Mycobacterium tuberculosis, UniProt P9WIA1); assay: Mt-PTPa phosphatase activity inhibition assay (hydrolysis of p-nitrophenyl phosphate, A405); type: biochemical; conditions: for IC50 / Ki / inhibition of Mt-PTPa compared with vanadate: Mt-PTPa 10 µM; for IC50 / inhibition of Mt-PTPa compared with vanadate: pNPP 100 µM; for IC50: 37 °C, 10 min, compound 0-1000 µM, mean ± SD (n = 3); for Ki: Dixon plot analysis, inhibitor 0-100 µM, read-out: KI (inhibitor constant); for Ki / inhibition pattern (mechanism): pNPP 0.25-2.50 mM; for inhibition of Mt-PTPa compared with vanadate: at 25 and 50 µM; for inhibition pattern (mechanism): double-reciprocal analysis
T1 construct: made in house; host or cells: E. coli BL21(DE3)pLysS
T1 sequence (P9WIA1 whole entry): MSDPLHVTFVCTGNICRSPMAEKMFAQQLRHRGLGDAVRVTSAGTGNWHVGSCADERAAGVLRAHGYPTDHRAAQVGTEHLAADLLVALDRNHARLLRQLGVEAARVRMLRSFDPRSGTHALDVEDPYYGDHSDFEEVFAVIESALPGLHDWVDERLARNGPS

[2] = molecular target: protein tyrosine phosphatase 1B (PTP1B); design: method as in PMID 34208908; conditions: in vitro; cited from earlier work
[3] = tested on: N-formyl-L-methionyl-L-leucyl-L-phenylalanine-induced protein tyrosine phosphorylation; design: method as in PMID 9175722; conditions: in neutrophils; cited from earlier work

With O=C(/C=C/c1ccc(O)c(O)c1)O[C@H](Cc1ccc(O)c(O)c1)C(=O)O [Rosmarinic Acid, rosmarinic acid] the “initial library screen outcome” value [1] was “hits” and the IC50 [1] was 900 ± 132 µM.

For Oc1cc(O)c2c(c1)O[C@H](c1cc(O)c(O)c(O)c1)[C@H](O)C2 [Epigallocatechin, epigallocatechin], the “initial library screen outcome” value [1] was “hits” and the IC50 [1] was 492 ± 101 µM.

With O=C1C=CC(=O)c2c(O)cccc21 [Juglone, 5-hydroxy-1,4-naphthalenedione] the Ki [1] was 12.5 µM, the “inhibition of Mt-PTPa compared with vanadate” value [1] was “comparable levels of inhibition to vanadate” and the “inhibition pattern (mechanism)” value [1] was “non-competitive”.

For C[C@H]1[C@H](C)CC[C@]2(C(=O)O)CC[C@]3(C)C(=CC[C@@H]4[C@@]5(C)CC[C@H](O)C(C)(C)[C@@H]5CC[C@]43C)[C@H]12 [ursolic acid, reference compound], the IC50 [2] is listed as 8.72 µM.

With CC(C)=CC[C@@H](O)C1=CC(=O)c2c(O)ccc(O)c2C1=O [Shikonin, 5,8-dihydroxy-2-[(1R)-1-hydroxy-4-methyl-3-pentenyl]-1,4-naphthoquinone] the “initial library screen outcome” value [1] was “hits”, the Ki [1] was 8.5 µM and the IC50 [1] was 33 ± 7 µM. For the same compound, the “inhibition of Mt-PTPa compared with vanadate” value [1] was “comparable levels of inhibition to vanadate”, the “inhibition pattern (mechanism)” value [1] was “non-competitive” and the IC50 [2] was 15.5 µM.

For CC(=O)O[C@H](CC=C(C)C)C1=CC(=O)c2c(O)ccc(O)c2C1=O [acetylshikonin], the “reduction of protein tyrosine phosphorylation” value [3] is given as 90%.

With O=c1c(O)c(-c2cc(O)c(O)c(O)c2)oc2cc(O)cc(O)c12 [Myricetin, myricetin] the “initial library screen outcome” value [1] was “hits” and the IC50 [1] was 250 ± 25 µM.
